Two compounds from patent US20220378923A1, “BET DEGRADER” (KYOWA KIRIN CO., LTD., priority 2019, published 2022) can be followed below.

Common to all, as to assay type: cell-based
What all share (details): SU-DHL-4 cells, test compound 100 nmol/L, 24 hours

One experiment concerns the target T1, BRD3 (Homo sapiens, UniProt Q15059).
T1 construct: Changes in the amount of BRD4, BRD2 and BRD3 proteins in the SU-DHL-4 cell line; endogenous in cells; host or cells: SU-DHL-4
The experiment can be described thus: Evaluation of BET proteolysis in SU-DHL-4 cell line by Western blotting: BRD3 (Test Example 4). On the procedure:
(§1) The human DLBCL cell line SU-DHL-4 was purchased from DSMZ. SU-DHL-4 was passaged using RPMI1640 medium containing 10 vol % FBS. The culture conditions were 37° C. and 5% CO2.
Anti-BRD3 antibody: Anti-BRD3 antibody (2088C3a) (Santa Cruz Biotechnology, Cat No. sc-81202)
(§2) Changes in the amount of BRD4, BRD2 and BRD3 proteins in the SU-DHL-4 cell line by the test compound (compound 1b, compound 1l or compound P3) were detected by WB. The compound P3 is a compound described as example 14 in the known Patent Document 2 (WO 2015/081284), which was synthesized according to the method described in Patent Document 2 and used in this test.
(§3) The cultured SU-DHL-4 cells were seeded at 6×10^5 cells/well in a transparent 6-well plate (Code No. 140675, Thermo Fisher Scientific). After seeding, the cells were pre-cultured at 37° C. in a carbon dioxide gas incubator for 18 to 25 hours. Next, a 0.1 mmol/L DMSO solution of the test compound was prepared, diluted so that the concentration was 200-fold of the final concentration in RPMI1640 medium containing the above FBS and PS, and 1/200 volume of the diluted solution was added to each well. At this time, the final concentration of DMSO was adjusted to be 0.1 vol %. After adding the test compound, the cells were cultured at 37° C. in a carbon dioxide gas incubator for 24 hours.
(§4) After collecting the cells, the supernatant was aspirated, and Lysis buffer 6 (R&D systems, Cat No. 895561) was added to the pellet at 0.1 mL/sample. After incubating on ice for 60 minutes, the supernatant was collected by centrifugation at 15000 rpm for 10 minutes at 4° C.
(§5) Using Pierce BCA Protein Assay Kit (Thermo Fisher, Cat No. 23225), the protein concentration of each sample was quantified according to the manual attached to the kit, and then was diluted and prepared with Lane Marker Reducing Sample Buffer (5×) (Thermo Fisher, Cat No. 39000) and Lysis buffer 6 to 1 mg/mL. The cells were incubated at 95° C. for 5 minutes to prepare WB samples. WB samples were stored at −30° C. until electrophoresis.
(§6) The WB sample was thawed and used after vortex mixing and spin down. […]
For orientation: In western blotting, separated proteins are transferred to a membrane and probed.

Another experiment concerns the target T2, BRD2 (Homo sapiens, UniProt P25440).
T2 construct: Changes in the amount of BRD4, BRD2 and BRD3 proteins in the SU-DHL-4 cell line; endogenous in cells; host or cells: SU-DHL-4
As to the kind of experiment: Evaluation of BET proteolysis in SU-DHL-4 cell line by Western blotting: BRD2 (Test Example 4). On the procedure: as §1
Anti-BRD2 antibody: Brd2 (D8964) Rabbit mAb (Cell Signaling Technology, Cat No. #5848S)
as §2, §3, §4, §5, §6

The next experiment deals with T3, BRD4 (Homo sapiens, UniProt O60885).
T3 construct: Changes in the amount of BRD4, BRD2 and BRD3 proteins in the SU-DHL-4 cell line; endogenous in cells; host or cells: SU-DHL-4
The experiment can be described thus: Evaluation of BET proteolysis in SU-DHL-4 cell line by Western blotting: BRD4 (Test Example 4). How it is done:
as §1
Anti-BRD4 antibody: BRD4 (E2A7X) Rabbit mAb (Cell Signaling Technology, Cat No. #13440S)
as §2, §3, §4, §5, §6

T2 sequence (P25440 whole entry): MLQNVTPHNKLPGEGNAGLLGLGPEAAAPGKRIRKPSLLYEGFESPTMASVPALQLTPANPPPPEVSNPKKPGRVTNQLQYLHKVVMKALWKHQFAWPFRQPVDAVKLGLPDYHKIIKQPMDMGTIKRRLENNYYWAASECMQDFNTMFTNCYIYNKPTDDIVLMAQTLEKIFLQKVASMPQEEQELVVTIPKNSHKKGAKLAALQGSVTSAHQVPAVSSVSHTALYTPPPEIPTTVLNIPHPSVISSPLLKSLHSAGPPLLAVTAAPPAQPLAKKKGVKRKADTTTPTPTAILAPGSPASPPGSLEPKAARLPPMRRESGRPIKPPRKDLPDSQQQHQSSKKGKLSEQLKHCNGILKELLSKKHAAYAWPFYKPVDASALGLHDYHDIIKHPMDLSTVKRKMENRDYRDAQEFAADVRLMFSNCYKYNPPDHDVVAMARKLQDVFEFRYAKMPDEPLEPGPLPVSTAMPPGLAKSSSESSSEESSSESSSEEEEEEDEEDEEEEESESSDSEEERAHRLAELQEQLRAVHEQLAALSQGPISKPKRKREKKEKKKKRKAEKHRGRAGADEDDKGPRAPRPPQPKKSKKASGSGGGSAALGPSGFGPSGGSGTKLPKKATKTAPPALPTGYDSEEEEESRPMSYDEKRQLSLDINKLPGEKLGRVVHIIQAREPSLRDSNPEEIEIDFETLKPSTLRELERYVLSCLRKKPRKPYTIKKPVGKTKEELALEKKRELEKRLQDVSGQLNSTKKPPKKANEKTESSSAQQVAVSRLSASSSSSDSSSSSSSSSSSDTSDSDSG
T1 sequence (Q15059 whole entry): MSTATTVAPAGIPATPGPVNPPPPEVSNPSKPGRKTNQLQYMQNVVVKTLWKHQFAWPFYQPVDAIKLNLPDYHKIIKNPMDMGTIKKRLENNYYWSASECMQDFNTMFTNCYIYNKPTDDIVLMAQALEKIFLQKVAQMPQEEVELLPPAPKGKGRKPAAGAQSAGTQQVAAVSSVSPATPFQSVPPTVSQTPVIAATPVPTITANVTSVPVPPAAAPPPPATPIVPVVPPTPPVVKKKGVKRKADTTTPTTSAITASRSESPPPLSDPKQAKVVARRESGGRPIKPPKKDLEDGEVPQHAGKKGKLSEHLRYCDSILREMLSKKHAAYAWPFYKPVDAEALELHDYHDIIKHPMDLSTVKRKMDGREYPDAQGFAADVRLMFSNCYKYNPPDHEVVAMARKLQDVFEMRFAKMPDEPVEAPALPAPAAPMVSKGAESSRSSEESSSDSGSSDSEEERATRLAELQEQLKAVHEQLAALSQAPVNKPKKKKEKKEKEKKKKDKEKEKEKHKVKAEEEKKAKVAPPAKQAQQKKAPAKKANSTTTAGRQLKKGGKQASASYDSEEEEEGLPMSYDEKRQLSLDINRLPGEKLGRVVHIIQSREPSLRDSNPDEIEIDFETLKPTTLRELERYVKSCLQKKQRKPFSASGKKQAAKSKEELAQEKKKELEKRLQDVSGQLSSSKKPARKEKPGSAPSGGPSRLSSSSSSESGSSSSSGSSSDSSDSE

Take `CCC(=O)N1c2ccccc2[C@H](Nc2ccc(C(=O)NCC(=O)CNC(=O)c3ccc(N[C@@H]4C[C@H](C)N(C(=O)CC)c5ccccc54)cc3)cc2)C[C@@H]1C` [Compound 1l, N,N′-(2-Oxopropane-1,3-diyl)bis(4-{[(2S,4R)-2-methyl-1-propionyl-1,2,3,4-tetrahydroquinolin-4-yl]amino}benzamide)]: the “change in amount of BRD3 protein (band in Western blotting, FIG. 1)” value on BRD3 is listed as “the band became faint compared with that of control”. Besides, the “change in amount of BRD2 protein (band in Western blotting, FIG. 1)” value on BRD2 was “the band became faint compared with that of control”. In addition, the “change in amount of BRD4 protein (band in Western blotting, FIG. 1)” value at BRD4 was “the band became faint compared with that of control”.

As to `Cc1sc2c(c1C)C(c1ccc(C(=O)NCCCNC(=O)c3ccc(C4=N[C@@H](CC(=O)OC(C)(C)C)c5nnc(C)n5-c5sc(C)c(C)c54)cc3)cc1)=N[C@@H](CC(=O)OC(C)(C)C)c1nnc(C)n1-2` [Compound 1b, Di-tert-butyl 2,2′-[(6S,6′S)-({[propane-1,3-diylbis(azanediyl)]bis(carbonyl)}bis(4,1-phenylene))bis(2,3,9-trimethyl-6H-thieno[3,2-f][1,2,4]triazolo[4,3-a][1,4]diazepine-4,6-diyl)]diacetate], on BRD3, the “change in amount of BRD3 protein (band in Western blotting, FIG. 1)” value is “the band became faint compared with that of control”. At BRD2, the “change in amount of BRD2 protein (band in Western blotting, FIG. 1)” value is “the band became faint compared with that of control”. At BRD4, the “change in amount of BRD4 protein (band in Western blotting, FIG. 1)” value is recorded as “the band became faint compared with that of control”.
